# Tested on: Purkinje fiber
# Assay: Effect on APD (APD75, field-stimulated right ventricular free wall)
# Assay type: cell-based, adult mongrel dog
# Details: Canis lupus familiaris, purkinje, 20 min, dose 1 μg/ml, 20 minutes incubation, 37° C., 1 Hz; control before drug = 100%; read-out: APD75 % (percent change in APD75)
# Description: The pharmacological effects of the compounds of this invention represented by general formula (1) were studied. By using the heart of an adult mongrel dog, the activity of the compounds of general formula (1) were tested in vitro and in vivo. The heart of an anaethetized dog was extracted and suspended in a chamber at 37° C. in Tyrode's solution. The drug was added to Tyrode's solution being perfused through the heart specimen, and electrophysiological effects of the drug on cardiac action potential duration (APD) and maximum rate of depolarization were studied. An anaethetized dog was cut open at the chest.
# An adult mongrel dog was anaethetized with intravenous administration of pentobarbital, 30 mg/kg. The heart was quickly removed, and the right ventricular free wall was dissected in the Tyrode's solution. The right ventricular free wall was fixed within an incubator at 37° C., and field stimulation at 1 Hz was carried out. Intracellular potentials were measured by piercing glass microelectrodes (10-20 megaohms) into the Purkinje fiber and the wave form of cardiac action potential drawn on an oscilloBraun tube via an amplifier was analyzed by a computer. Value of APD was obtained at 75% of full repolarization (APD75). The drug was added to Tyrode's solution (20 ml) perfused through the specimen. The effect of the drug was expressed by a percent change in APD75 after incubation for 20 minutes with the control value of APD before application of the drug being taken as 100%.
row,Compound,activation at 1 µg/mL [%]
1,O=C1COc2cc(OCCCN[C@@H]3C[C@H]4CC[C@@H]3C4)ccc21 (relative stereo) [Compound 168],0
2,CCCCCCCN(CC)CCCOc1ccc2c(c1)OCC2=O [Compound 100],21
3,CCCCCN(CC)CCCOc1ccc2c(c1)OCC2=O [Compound 108],0
4,CCN(CCCOc1ccc2c(c1)OCC2=O)C12CC3CC(CC(C3)C1)C2 [Compound 172],0
5,CCCN(CCCOc1ccc2c(c1)OCC2=O)CCOC [Compound 180],5
6,CCCCN(CCCC)CCOc1ccc2c(c1)OCC2=O [Compound 204],3
7,"CCCCCCCN(CC)CC(O)COc1ccc2c(c1)OCC2=O (centres unmarked) [Compound 214, 6-[3-(N-ethyl-N-heptylamino)-2-hydroxypropyloxy]coumaran-3-one]",15
8,COCCN(CCCOc1ccc2c(c1)OCC2=O)CCOC [Compound 276],5
9,CCCCCCC[N+](CC)(CC)CCCOc1ccc2c(c1OC)OCC2=O [Compound 289],7
10,CCCCCCC[N+](CC)(CC)CC(O)COc1ccc2c(c1)OCC2=O (centres unmarked) [Compound 292],15
11,CCCC[N+](CCCC)(CCCC)CCCOc1ccc2c(c1)OCC2=O [Compound 293],0
12,CCCCCCC[N+](CC)(CC)CCCOc1ccc2c(c1)OCC2 [Compound 422],0
13,CCCCCCC[N+](CC)(CC)CCCOc1ccc2c(C)c(C)c(=O)oc2c1 [Compound 634],4
14,CCCCCCC[N+](CC)(CC)CCCOc1ccc2ccc(=O)oc2c1 [Compound 638],0
15,CCCCCCC[N+](CC)(CC)CCCOc1ccc2c(c1)CCC2 [Compound 770],0
16,CCCCCCC[N+](CC)(CC)CCCOc1ccc2c(c1)OC(C)(CC)CC2=O (centres unmarked) [Compound 820],4
17,CCCCCCCN(CC)CCCOc1ccc2sc(=O)oc2c1 [Compound 952],0
18,C=CCc1ccccc1OCC(O)C[N+](C)(C)C(C)C (centres unmarked) [Compound 1020],10
19,CCCCCCC[N+](CC)(CC)CCCOc1ccccc1C=CC(C)=O [Compound 1022],0
20,O=C1COc2cc(OCCCN3CCCCC3)ccc21 [Compound 1108],0
21,CCCC1CCCCN1CCCOc1ccc2c(c1)OCC2=O (centres unmarked) [Compound 1134],7
22,O=C1COc2cc(OCCCN3CCOCC3)ccc21 [Compound 1166],4
23,O=C1COc2cc(OCCCN3CC4CCC(CC4)C3)ccc21 [Compound 1198],4

# Same assay, conditions: Canis lupus familiaris, purkinje, 20 min, dose 3 μg/ml, 20 minutes incubation, 37° C., 1 Hz; control before drug = 100%; read-out: APD75 % (percent change in APD75)
row,Compound,activation at 3 µg/mL [%]
1,O=C1COc2cc(OCCCN[C@@H]3C[C@H]4CC[C@@H]3C4)ccc21 (relative stereo) [Compound 168],3
2,C[C@H]1C[C@H](C)CN(CCCOc2ccc3c(c2)OCC3=O)C1 (relative stereo) [Compound 1129],7
3,CCCCCCCN(CC)CCCOc1ccc2c(c1)OCC2=O [Compound 100],31
4,CCCCCN(CC)CCCOc1ccc2c(c1)OCC2=O [Compound 108],2
5,CCN(CCCOc1ccc2c(c1)OCC2=O)C12CC3CC(CC(C3)C1)C2 [Compound 172],8
6,CCCN(CCCOc1ccc2c(c1)OCC2=O)CCOC [Compound 180],11
7,CCCCN(CCCC)CCOc1ccc2c(c1)OCC2=O [Compound 204],7
8,"CCCCCCCN(CC)CC(O)COc1ccc2c(c1)OCC2=O (centres unmarked) [Compound 214, 6-[3-(N-ethyl-N-heptylamino)-2-hydroxypropyloxy]coumaran-3-one]",15
9,CC(C)NCC(O)COc1ccc2c(c1)OCC2=O (centres unmarked) [Compound 272],8
10,COCCN(CCCOc1ccc2c(c1)OCC2=O)CCOC [Compound 276],12
11,CCCCCCC[N+](CC)(CC)CCCOc1ccc2c(c1OC)OCC2=O [Compound 289],8
12,CCCCCCC[N+](CC)(CC)CCCOc1cc(OC)c2c(c1)OCC2=O [Compound 290],11
13,CCCCCCC[N+](CC)(CC)CC(O)COc1ccc2c(c1)OCC2=O (centres unmarked) [Compound 292],25
14,CCCC[N+](CCCC)(CCCC)CCCOc1ccc2c(c1)OCC2=O [Compound 293],4
15,C=CC[N+](CC)(CCCOc1ccc2c(c1)OCC2=O)C1CCCCC1 (centres unmarked) [Compound 294],11
16,CCCCCCCN(CC)CCCOc1ccc2c(c1)OC(C)(CC)C2C (centres unmarked) [Compound 404],4

row,Compound,activation at 3 µg/mL [%]
1,CCCCCCC[N+](CC)(CC)CCCOc1ccc2c(c1)OCC2 [Compound 422],3
2,CCCCCCC[N+](CC)(CC)CCCOc1ccc2c(C)c(C)c(=O)oc2c1 [Compound 634],7
3,CCCCCCC[N+](CC)(CC)CCCOc1ccc2ccc(=O)oc2c1 [Compound 638],7
4,CCCCCCC[N+](CC)(CC)CCCOc1ccc2c(c1)CCC2 [Compound 770],7
5,CCCCCCC[N+](CC)(CC)CCCOc1ccc2c(c1)OC(C)(CC)CC2=O (centres unmarked) [Compound 820],5
6,CCCCCCCN(CC)CCCOc1ccc2sc(=O)oc2c1 [Compound 952],3
7,C=CCc1ccccc1OCC(O)C[N+](C)(C)C(C)C (centres unmarked) [Compound 1020],14
8,CCCCCCC[N+](CC)(CC)CCCOc1ccccc1C=CC(C)=O [Compound 1022],11
9,O=C1COc2cc(OCCCN3CCCC3)ccc21 [Compound 1102],6
10,CC1CCN(CCCOc2ccc3c(c2)OCC3=O)C1 (centres unmarked) [Compound 1106],8
11,O=C1COc2cc(OCCCN3CCCCC3)ccc21 [Compound 1108],7
12,CC[N+]1(CCCOc2ccc3c(c2)OCC3=O)CCCC(C)C1 (centres unmarked) [Compound 1119],4
13,CCCC1CCCCN1CCCOc1ccc2c(c1)OCC2=O (centres unmarked) [Compound 1134],9
14,O=C1COc2cc(OCCCN3CCOCC3)ccc21 [Compound 1166],6
15,O=C1COc2cc(OCCCN3CC4CCC(CC4)C3)ccc21 [Compound 1198],6
16,O=C1COc2cc(OCCCN3CCCC(CO)C3)ccc21 (centres unmarked) [Compound 1214],4

# Same assay, conditions: Canis lupus familiaris, purkinje, 20 min, dose 10 μg/ml, 20 minutes incubation, 37° C., 1 Hz; control before drug = 100%; read-out: APD75 % (percent change in APD75)
row,Compound,activation at 10 µg/mL [%]
1,"CCCCCCC[N+](CC)(CC)CCCCc1ccc(Cl)cc1 [Clofilium, reference compound]",15
2,CCCN(CCCOc1ccc2c(c1)OCC2=O)CCOC [Compound 180],15
3,CCCCN(CCCC)CCOc1ccc2c(c1)OCC2=O [Compound 204],8
4,CC(C)NCC(O)COc1ccc2c(c1)OCC2=O (centres unmarked) [Compound 272],10
5,COCCN(CCCOc1ccc2c(c1)OCC2=O)CCOC [Compound 276],23
6,CCCCCCC[N+](CC)(CC)CCCOc1cc(OC)c2c(c1)OCC2=O [Compound 290],35
7,CCCCCCC[N+](CC)(CC)CC(O)COc1ccc2c(c1)OCC2=O (centres unmarked) [Compound 292],28
8,C=CC[N+](CC)(CCCOc1ccc2c(c1)OCC2=O)C1CCCCC1 (centres unmarked) [Compound 294],35
9,CCCCCCC[N+](CC)(CC)CCCOc1ccc2c(C)c(C)c(=O)oc2c1 [Compound 634],11
10,CCCCCCCN(CC)CCCOc1ccc2sc(=O)oc2c1 [Compound 952],7
11,C=CCc1ccccc1OCC(O)C[N+](C)(C)C(C)C (centres unmarked) [Compound 1020],19
12,CCCCCCC[N+](CC)(CC)CCCOc1ccccc1C=CC(C)=O [Compound 1022],18
13,CC1CCN(CCCOc2ccc3c(c2)OCC3=O)C1 (centres unmarked) [Compound 1106],13

# Same assay, conditions: dose 1 μg/ml, 20 minutes incubation, 37° C., 1 Hz; control before drug = 100%
row,Compound,APD75 % (percent change in APD75) [%]
1,CCCCCCCN(CC)CCCOc1ccc2c(c1)OCC2=O [Compound 104],21

# Same assay, conditions: dose 3 μg/ml, 20 minutes incubation, 37° C., 1 Hz; control before drug = 100%
row,Compound,APD75 % (percent change in APD75) [%]
1,CCCCCCCN(CC)CCCOc1ccc2c(c1)OCC2=O [Compound 104],30

# Same assay, conditions: dose 10 μg/ml, 20 minutes incubation, 37° C., 1 Hz; control before drug = 100%
row,Compound,APD75 % (percent change in APD75) [%]
1,O=C1COc2cc(OCCCN3CCCCC3)ccc21 [Compound 1108],9

# Tested on: right ventricle (effective refractory period)
# Assay: Activity on ERP of the right ventricle
# Assay type: in vivo, adult mongrel dog
# Details: Canis lupus familiaris, iv; 0.1 mg/kg i.v.; ERP before drug = 100%; read-out: ERP % (ERP prolonging activity)
# Description: The pharmacological effects of the compounds of this invention represented by general formula (1) were studied. By using the heart of an adult mongrel dog, the activity of the compounds of general formula (1) were tested in vitro and in vivo. The heart of an anaethetized dog was extracted and suspended in a chamber at 37° C. in Tyrode's solution. The drug was added to Tyrode's solution being perfused through the heart specimen, and electrophysiological effects of the drug on cardiac action potential duration (APD) and maximum rate of depolarization were studied. An anaethetized dog was cut open at the chest. […] In an anaethetized and open-chested adult mongrel dug, a silver-silver chloride electrode was sutured to the right ventricle, and ventricular pacing was performed at a stimulation interval of 400 msec for a duration time of 4 msec, twice diastolic threshold. Then, a small amount of alcohol was injected through the sinus artery to extinguish the pacemaker activity, and under ventricular pacing, ERP was measured. Ten stimulations were taken as one train, and the interval between trains when the response to the first stimulation disappeared was defined as ERP. […] ERP before drug administration (intravenously or intraduodenally) was taken as 100%, and ERP prolonging activity of the drugs was expressed by %.
row,Compound,change in vivo at 0.1 mg/kg [%]
1,"CCCCCCC[N+](CC)(CC)CCCCc1ccc(Cl)cc1 [Clofilium, reference compound]",7 ± 1.3
2,COCCN(CCCOc1ccc2c(c1)OCC2=O)CCOC [Compound 276],0
3,CCCCCCC[N+](CC)(CC)CC(O)COc1ccc2c(c1)OCC2=O (centres unmarked) [Compound 292],8
4,"CC(C)NCC(O)c1ccc(NS(C)(=O)=O)cc1 (centres unmarked) [Sotalol, reference compound]",1.7 ± 1.7

# Same assay, conditions: Canis lupus familiaris, iv; 0.3 mg/kg i.v.; ERP before drug = 100%; read-out: ERP % (ERP prolonging activity)
row,Compound,change in vivo at 0.3 mg/kg [%]
1,"CCCCCCC[N+](CC)(CC)CCCCc1ccc(Cl)cc1 [Clofilium, reference compound]",15.2 ± 2.4
2,COCCN(CCCOc1ccc2c(c1)OCC2=O)CCOC [Compound 276],0
3,CCCCCCC[N+](CC)(CC)CC(O)COc1ccc2c(c1)OCC2=O (centres unmarked) [Compound 292],8
4,"CC(C)NCC(O)c1ccc(NS(C)(=O)=O)cc1 (centres unmarked) [Sotalol, reference compound]",6.7 ± 0.9

# Same assay, conditions: Canis lupus familiaris, iv; 1 mg/kg i.v.; ERP before drug = 100%; read-out: ERP % (ERP prolonging activity)
row,Compound,change in vivo at 1 mg/kg [%]
1,"CCCCCCC[N+](CC)(CC)CCCCc1ccc(Cl)cc1 [Clofilium, reference compound]",22.4 ± 1.6
2,COCCN(CCCOc1ccc2c(c1)OCC2=O)CCOC [Compound 276],7
3,CCCCCCC[N+](CC)(CC)CC(O)COc1ccc2c(c1)OCC2=O (centres unmarked) [Compound 292],8
4,"CC(C)NCC(O)c1ccc(NS(C)(=O)=O)cc1 (centres unmarked) [Sotalol, reference compound]",8.7 ± 1.2

# Same assay, conditions: Canis lupus familiaris, iv; 3 mg/kg i.v.; ERP before drug = 100%; read-out: ERP % (ERP prolonging activity)
row,Compound,change in vivo at 3 mg/kg [%]
1,COCCN(CCCOc1ccc2c(c1)OCC2=O)CCOC [Compound 276],7
2,"CC(C)NCC(O)c1ccc(NS(C)(=O)=O)cc1 (centres unmarked) [Sotalol, reference compound]",15.5 ± 0.5

# Tested on: not listed separately
# Assay: in vivo
# Details: mouse, in vivo, po, LD50 p.o., p.o., 24 hours after administration, male ddY mice
# Description: By using male ddY-strain 5-week old mice (3 to 4 per group), the compounds of general formula (1) were each administered orally or intraperitoneally as a solution in saline or as a suspension in methyl cellulose, and 24 hours after the administration, the toxicity of the compounds was evaluated.
row,Compound,LD50 at 24 h [mg/kg]
1,CSC(=NC#N)N(C)CCCOc1ccc2c(c1)OCC2=O [Compound 271],> 300
2,CCCN(CCCOc1ccc2c(c1)OCC2=O)CCC(=O)OCC [Compound 281],> 300
3,CCCCCCC[N+](CC)(CC)CCCOc1cccc2c1OCC2=O [Compound 295],> 300
4,CS(=O)(=O)Nc1ccc(C2CCN(CCCOc3ccc4c(c3)OCC4=O)CC2)cc1 [Compound 1304],> 300
